Data reported in PubChem BioAssay AID1963968 (Molecular Pharmacology Branch, DTP, NCI, 2024).
“And” between values parts separate entries of the source, which are not always exact repeats. Identical values can stand only once.

Test system: 945468-187-T-J3-PDC spheroids with HUVEC/MSC, viability
Test: Anticancer human tumor 945468-187-T-J3-PDC patient-derived rectal carcinoma cell line growth inhibition [PI3K]
Settings: for viability, T/C: stronger effect = lower value
Excerpt: Combinatorial screen of targeted agents with the PI3K inhibitors inavolisib, alpelisib, duvelisib, and copanlisib in multi-cell type tumor spheroids
A high-throughput screen of multi-cell type tumor spheroids was designed to identify active combinations of targeted small molecules and PI3K pathway inhibitors. Complex spheroids include a stromal component modeled by human endothelial cells (HUVEC) and fibroblasts modeled by human mesenchymal stem cells (MSCs). The concentration ranges selected for each drug and investigational agent were based upon clinically achievable concentrations if the clinical Cmax of the agent was known.
Compounds. The drugs and investigational agents: inavolisib (NSC800729), alpelisib (NSC765974), duvelisib (NSC772469), copanlisib (NSC816437), ipatasertib (NSC767898), afuresertib (NSC778305), talazoparib (NSC767125), sapanisertib (NSC764658), selumetinib (NSC741078), tovorafenib (DAY101, NSC766906), vemurafenib (NSC761431), ravoxertinib (NSC781343), sotorasib (NSC818433), MRTX1133 (NSC 836407), abemaciclib (NSC 768073), palbociclib (NSC758247), venetoclax (NSC 766270), SY5609 (NSC837396), enzalutamide (NSC755605), and darolutamide (NSC825331), were obtained from the National Cancer Institute (NCI) Developmental Therapeutics Program Chemical Repository. The FDA-approved anticancer drug set is available from the NCI Developmental Therapeutics Program. […] The stock solutions were prepared in dimethyl sulfoxide (DMSO, Sigma-Aldrich, St. Louis, MO, cat. D2650) at 800-fold the tested concentration and stored at -70 degrees C prior to their use. All drugs and investigational agents were tested over a range starting from a high concentration at or near the clinical Cmax and decreasing in half-log increments. If the clinical Cmax for an agent had not been determined, the highest concentration tested was 10 microM.
Cell Culture. All cells were maintained in an incubator at 37 degrees C and 5% CO2 with 95% humidity. The PDC lines were cultured according to standard operating procedures established by the NCI PDMR (https://pdmr.cancer.gov/sops/default.htm). All PDCs were thawed and cultured in Matrigel-coated flasks prepared with a working solution of 1X Ham's F-12 nutrient mix, without supplementation (Invitrogen, Waltham, MA, cat. 11765054), 100 U/mL penicillin-streptomycin (Invitrogen, cat. 15140122), and 2.5% Matrigel (Corning Inc., Corning, NY, cat. 354248) for the first three passages. The 354836-022-R-J1-PDC, 475296-252-R-J1-PDC, and 997726-040-R-J2-PDC lines were cultured in 6A media, which includes advanced DMEM/F-12 (Thermo Fisher Scientific, cat. 12634028), 10 mM HEPES (Thermo Fisher Scientific, cat. 15630080), 1X GlutaMAX supplement (Thermo Fisher Scientific, cat. 35050061), 0.1 mg/mL primocin (InvivoGen, San Diego, CA, cat. ant-pm-2), 10% defined fetal bovine serum, heat inactivated (HyClone Laboratories Inc., Logan, UT, cat. SH30070.03HI), 50% L-WRN conditioned media (ATCC, cat. CRL-3276), 1.25 mM N-Acetyl-L-cysteine (Sigma-Aldrich, cat. A9165), 10 mM nicotinamide (Sigma-Aldrich, cat. N0636), 1X B-27 supplement (Thermo Fisher Scientific, cat. 17504044), 1X N-2 supplement (Thermo Fisher Scientific, cat. 17502048), and 10 microM Y-27632 dihydrochloride (Tocris Bioscience, Bristol, United Kingdom, cat. 1254). The 624824-186-R-J2-PDC line was cultured in 6C/Colon 1B media, which includes all 6A media components plus 50 ng/mL human EGF recombinant protein (Thermo Fisher Scientific, cat. PHG0311). […]

[1] = compound alone, run of 06/12/2023
[2] = compound alone, run of 06/13/2023
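Note: spheroids exposed to agents for 7 days before viability read.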
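Throughout, for viability, T/C: 100% = DMSO vehicle control viability.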

Structure (SMILES) | viability, T/C (compound 0.0316 µM) | viability, T/C (compound 0.1 µM) | viability, T/C (compound 0.316 µM) | viability, T/C (compound 1 µM) | viability, T/C (compound 3.16 µM) | viability, T/C (compound 10 µM) | IC50 (curve of compound) | viability, T/C (compound 0.00316 µM) | viability, T/C (compound 0.01 µM) | further results
C#Cc1c(F)ccc2cc(O)cc(-c3ncc4c(N5CC6CCC(C5)N6)nc(OCC56CCCN5CC(F)C6)nc4c3F)c12 (configuration not stated) | 96.4% [middle of 4 runs] | 95.8% [middle of 4 runs] | 98.2% [middle of 4 runs] | 114% (2×) and 95.9% and 89.8% | 125% [middle of 4 runs] | 113% [middle of 4 runs] | > 10 µM | – | – | –
C=CC(=O)N1CCN(c2nc(=O)n(-c3c(C)ccnc3C(C)C)c3nc(-c4c(O)cccc4F)c(F)cc23)C(C)C1 (configuration not stated) | 99.2% and 94% and 95.5% | 97.8% and 105% and 93.8% | 103% and 94.5% and 98.7% | 85.6% and 92.5% and 98.2% | 88.8% and 100% and 113% | 98.1% and 103% and 116% | > 10 µM | – | – | –
CC(=O)c1c(C)c2cnc(Nc3ccc(N4CCNCC4)cn3)nc2n(C2CCCC2)c1=O | 113% [middle of 4 runs] | 103% (2×) and 106% and 99.3% | – | – | – | – | > 0.1 µM | 83.2% and 102% (2×) and 91.3% | 93.4% [middle of 4 runs] | viability, T/C (compound 0.000316 µM): 101% [middle of 4 runs]; viability, T/C (compound 0.001 µM): 100% [middle of 4 runs]
CC(C)NCC(C(=O)N1CCN(c2ncnc3c2C(C)CC3O)CC1)c1ccc(Cl)cc1 (configuration not stated) | 92.6% [middle of 4 runs] | – | 100% [middle of 4 runs] | 94.6% [middle of 4 runs] | 65.2% [middle of 4 runs] | 39.3% [middle of 4 runs] | – | – | – | –
CC(C)n1nc(-c2ccc3oc(N)nc3c2)c2c(N)ncnc21 | – | – | – | – | – | – | > 0.1 µM and 0.0939 µM | 104% [middle of 4 runs] | 102% [middle of 4 runs] | viability, T/C (compound 0.000316 µM): 91.3% [middle of 4 runs]; viability, T/C (compound 0.001 µM): 94.2% [middle of 4 runs]
CC(Cn1ccc(-c2ccc(C#N)c(Cl)c2)n1)NC(=O)c1cc(C(C)O)[nH]n1 (configuration not stated) | 89.7% [middle of 4 runs] | 97.5% [middle of 4 runs] | 94.9% [middle of 4 runs] | 99.5% [middle of 4 runs] | 114% [middle of 4 runs] | 89.8% and 101% (2×) and 99% | > 10 µM | – | – | –
CC(Nc1ccc2c(c1)OCCn1cc(N3C(=O)OCC3C(F)F)nc1-2)C(N)=O (configuration not stated) | 99.6% [middle of 7 runs] | – | 99.6% [middle of 7 runs] | 73% [middle of 7 runs] | – | – | – | 103% [middle of 7 runs] | 97.2% [middle of 7 runs] | IC50 [1]: > 1 µM
CC(Nc1ncnc2nc[nH]c12)c1cc2cccc(Cl)c2c(=O)n1-c1ccccc1 (configuration not stated) | 100% [middle of 8 runs] | 96% [middle of 8 runs] | 96% [middle of 8 runs] | 99.5% [middle of 8 runs] | 98.2% [middle of 8 runs] | 98.8% [middle of 8 runs] | – | – | – | IC50 [2]: > 10 µM
CC1(C)CCC(CN2CCN(c3ccc(C(=O)NS(=O)(=O)c4ccc(NCC5CCOCC5)c([N+](=O)[O-])c4)c(Oc4cnc5[nH]ccc5c4)c3)CC2)=C(c2ccc(Cl)cc2)C1 | 105% [middle of 4 runs] | 110% [middle of 4 runs] | 101% [middle of 4 runs] | 112% [middle of 4 runs] | 130% [middle of 4 runs] | – | > 10 µM and 7.28 µM and 6.4 µM | – | – | –
CC1(C)CCC(Nc2ncc(C(F)(F)F)c(-c3c[nH]c4c(P(C)(C)=O)c(C#N)ccc34)n2)CN1 (configuration not stated) | 79.6% [middle of 4 runs] | – | – | – | – | 12.7% [middle of 4 runs] | 5.16 µM [middle of 4 runs] | – | – | –
CCCS(=O)(=O)Nc1ccc(F)c(C(=O)c2c[nH]c3ncc(-c4ccc(Cl)cc4)cc23)c1F | 105% [middle of 4 runs] | 97.1% [middle of 4 runs] | – | 102% [middle of 4 runs] | 103% [middle of 4 runs] | – | 6.88 µM [middle of 4 runs] | – | – | –
CCN1CCN(Cc2ccc(Nc3ncc(F)c(-c4cc(F)c5nc(C)n(C(C)C)c5c4)n3)nc2)CC1 | 97.6% [middle of 4 runs] | 107% [middle of 4 runs] | 110% [middle of 4 runs] | 99.2% [middle of 4 runs] | – | – | > 1 µM | 91.2% [middle of 4 runs] | 103% and 85.4% and 90.3% (2×) | –
CNC(=O)c1ccc(N2C(=S)N(c3ccc(C#N)c(C(F)(F)F)c3)C(=O)C2(C)C)cc1F | 100% (2×) and 113% and 95% | 108% [middle of 4 runs] | 104% [middle of 4 runs] | – | 113% (2×) and 102% and 121% | 109% [middle of 4 runs] | > 10 µM | – | – | –
COc1c(OCCCN2CCOCC2)ccc2c3n(c(=NC(=O)c4cnc(N)nc4)nc12)CCN3 | 95.7% [middle of 8 runs] | 39.7% [middle of 8 runs] | 19.6% [middle of 8 runs] | 16.4% [middle of 8 runs] | – | – | – | 96% [middle of 8 runs] | 96.8% [middle of 8 runs] | IC50 [2]: 80.4 nM [middle of 8 runs]
C[C@@H](NC(=O)c1ncnc(N)c1Cl)c1ncc(C(=O)Nc2cc(C(F)(F)F)c(Cl)cn2)s1 | 94.2% [middle of 4 runs] | 104% [middle of 4 runs] | 101% (2×) and 91.3% and 98.2% | 105% [middle of 4 runs] | 106% [middle of 4 runs] | 108% [middle of 4 runs] | > 10 µM | – | – | –
Cc1nc(NC(=O)N2CCCC2C(N)=O)sc1-c1ccnc(C(C)(C)C(F)(F)F)c1 (configuration not stated) | 90% [middle of 7 runs] | 96% [middle of 8 runs] | 99.1% [middle of 8 runs] | 103% [middle of 8 runs] | 106% [middle of 8 runs] | 62.1% [middle of 8 runs] | – | – | – | IC50 [1]: > 10 µM
Cn1cnc2c(F)c(Nc3ccc(Br)cc3Cl)c(C(=O)NOCCO)cc21 | – | – | – | – | – | – | > 3 µM | – | – | viability, T/C (compound 0.00949 µM): 103% [middle of 4 runs]; viability, T/C (compound 0.03 µM): 109% [middle of 4 runs]; viability, T/C (compound 0.0949 µM): 116% [middle of 4 runs]; viability, T/C (compound 0.3 µM): 119% (2×) and 99.5% and 130%; viability, T/C (compound 0.949 µM): 108% [middle of 4 runs]
Cn1ncc(Cl)c1-c1cc(C(=O)NC(CN)Cc2cccc(F)c2)sc1Cl (configuration not stated) | 100% (2×) and 98.4% and 89.2% | 98.1% [middle of 4 runs] | 97.4% [middle of 4 runs] | – | 59.7% [middle of 4 runs] | 50.4% [middle of 4 runs] | – | – | – | –
Cn1nccc1Nc1nccc(-c2ccn(C(CO)c3ccc(Cl)c(F)c3)c(=O)c2)n1 (configuration not stated) | 95.4% [middle of 4 runs] | 104% [middle of 4 runs] | – | 111% [middle of 4 runs] | 136% (2×) and 113% and 127% | – | > 10 µM | – | – | –
Cn1ncnc1[C@H]1c2n[nH]c(=O)c3cc(F)cc(c23)N[C@@H]1c1ccc(F)cc1 | 98.2% and 92.9% and 117% | 110% and 96.3% and 103% | – | – | – | – | > 0.1 µM | 99.4% and 89% and 90.5% | 86.2% and 91.3% and 94.7% | viability, T/C (compound 0.000316 µM): 101% and 102% and 91.8%; viability, T/C (compound 0.001 µM): 91.2% and 106% and 101%
